Laboratory results from patent US20090196861A1, “Biocompatible Latent Emulsifiers” (BIOAVAILABILITY, INC., priority 2005, published 2009).

Experiments:
[1] = Water solubility at neutral pH; type: physicochemical; settings: inferred from pKa
Source text: Rudnic et al. point out that short chain fatty acids are ionized at neutral pH, giving them a […] solubility, and imply that long chain fatty acids are not ionized and, thus, are even less soluble in water. […] Further, medium to long chain (C8 to C22) fatty acids have very limited water solubility; when mixing with water these fatty acids tend to separate from water completely just as oil or fat do.

[2] = measured to be as high as (Kanicky, 2002); cited from earlier work

In the case of CCCCCCCC/C=C\CCCCCCCC(=O)O [oleic acid], the water solubility [1] is listed as “essentially water insoluble” and the pKa [2] is listed as no more than 9.85.
